From US11173149B2, “Inhibition of protein disulfide-isomerase A3” (Romark Laboratories L.C., priority 2017, dated 2021)

Experiments:
[1] = target: T1, recombinant human PDIA3 (Homo sapiens, UniProt P30101); assay: Disulfide reductase activity assay with Di-E-GSSG substrate; assay type: biochemical
T1 construct: full-length recombinant human PDIA3 (rhPDIA3, Abcam); purchased Abcam
T1 sequence (P30101 25-505): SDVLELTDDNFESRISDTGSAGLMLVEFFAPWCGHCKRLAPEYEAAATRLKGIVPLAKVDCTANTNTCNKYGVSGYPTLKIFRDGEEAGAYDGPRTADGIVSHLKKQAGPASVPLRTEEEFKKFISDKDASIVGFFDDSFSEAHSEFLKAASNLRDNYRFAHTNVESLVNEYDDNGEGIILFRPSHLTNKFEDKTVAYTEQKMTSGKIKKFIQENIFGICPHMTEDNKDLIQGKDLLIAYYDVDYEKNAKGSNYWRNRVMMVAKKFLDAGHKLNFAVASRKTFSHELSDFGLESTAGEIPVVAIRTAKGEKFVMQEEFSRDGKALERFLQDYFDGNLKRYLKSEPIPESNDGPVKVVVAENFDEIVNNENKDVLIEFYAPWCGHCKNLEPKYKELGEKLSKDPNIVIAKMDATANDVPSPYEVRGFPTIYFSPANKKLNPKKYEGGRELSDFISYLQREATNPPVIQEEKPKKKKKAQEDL
Description: PDIA3 activity was determined by enzyme-dependent disulfide reduction assay. The disulfide reductase activity was tested in vitro using dieosin glutathione disulfide (Di-E-GSSG) as substrate. Recombinant human PDIA3 (rhPDIA3) (2 nM), pre-incubated with different concentrations of TIZ or control diluent (DMSO) for 10 min. at room temperature, was added to Di-E-GSSG (150 nM) in the presence of 5 μM DTT (arrow). PDIA3 reductase activity cleaves the S—S bond of Di-E-GSSG resulting in the release of fluorescent 2-eosin-GSH (EGSH). The increase in fluorescence was monitored at λ=545 nm with excitation at λ=525 nm, and expressed as relative fluorescence units (RFU).
FIG. 4A-B show effect of TIZ on PDIA3 and PDIA1 disulfide reductase activity. Effect of TIZ (5 μg/ml) on PDIA3 and PDIA1 (PDI) activities were measured by Di-E-GSSG assay using the same concentration (20 nM) of PDIA3 or PDIA1.
Disulfide reductase (DR) activity of PDIA3 or protein disulfide isomerase (PDI) was monitored by sensitive fluorescent assay using dieosin glutathione disulfide (Di-E-GSSG) (Cayman Chemical) as a substrate. DR activity assay was performed in a reaction buffer (0.1 M potassium phosphate, pH 7.0; 2 mM EDTA) by adding 2 or 20 nM of full-length recombinant human PDIA3 (rhPDIA3, Abcam) or PDI (rhPDIA1, R&D Systems) to different concentrations of Di-E-GSSG in the presence of 5 μM DTT. The reductase activity of disulfide isomerases cleaves the S—S bond of Di-E-GSSG resulting in the release of fluorescent 2-eosin-GSH (EGSH). To test the effect of TIZ on PDIA3 and PDI reductase activity, recombinant human PDIA3 or PDIA1 were previously incubated for 10 min at room temperature with different concentrations of TIZ or control diluent (DMSO) in the reaction buffer, unless differently specified. The increase in fluorescence was monitored at λ=545 nm with excitation at λ=525 nm at 25° C. with continuous stirring, and expressed as relative fluorescence units (RFU).
Thiazolides inhibit PDIA3 disulfide isomerase activity. To investigate whether thiazolides may directly affect PDIA3 disulfide-isomerase activity, we performed a fluorescence-based reductase in vitro assay using purified full-length recombinant human PDIA3 and oxidized glutathione coupled to dieosin (Di-E-GSSG) as a substrate. NTZ's circulating active metabolite, TIZ, was utilized for these studies.
Recombinant human PDIA3 (rhPDIA3) (2 nM) was pre-incubated with different concentrations of TIZ or control diluent (DMSO) for 10 min. at room temperature. […] PDIA3 reductase activity cleaves the S—S bond of Di-E-GSSG resulting in the release of fluorescent 2-eosin-GSH (EGSH), that is measured in function of time by fluorimetry, as described in Materials and Methods. […]

[2] = test system: PR8 IAV HA transport to the plasma membrane; assay type: cell-based; conditions: NTZ 5 μg/ml after adsorption, A549 cells, PR8 5 PFU/cell, 6 h p.i.
[3] = test system: PDIA3-HA protein-protein interaction; assay type: cell-based, canine

SMILES | effect on PDIA3 versus human PDIA1 reductase activity ([1]; TIZ 5 μg/ml, PDIA3 or PDIA1 20 nM, preliminary experiment) | lowest TIZ concentration tested at which inhibitory activity was observed ([1]; rhPDIA3 2 nM, Di-E-GSSG 150 nM, 5 μM DTT) [µg/mL] | PDIA3 disulfide reductase activity (time-course of EGSH fluorescence) ([1]; rhPDIA3 2 nM, pre-incubated 10 min with different TIZ concentrations, Di-E-GSSG 150 nM, 5 μM DTT) | plasma membrane-incorporated HA (HA transport to the plasma membrane) [2] | PDIA3 disulfide-isomerase activity in an in vitro assay (conclusion statement) [1] | HA-PDIA3 interaction detected by PLA [3]
O=C(Nc1ncc([N+](=O)[O-])s1)c1ccccc1O [TIZ, tizoxanide] | preferentially inhibits PDIA3 reductase activity | 1 | inhibits PDIA3 activity in a dose-dependent manner | – | – | –
CC(=O)Oc1ccccc1C(=O)Nc1ncc([N+](=O)[O-])s1 [NTZ, nitazoxanide] | – | – | – | inhibits PR8 IAV HA transport to the plasma membrane | directly inhibits PDIA3 disulfide-isomerase activity | PDIA3 strongly interacts with HA forming large spots
